US9889146B2, “Benzoxaborole compounds and uses thereof” (priority 2012, dated 2018)
In brackets after ≈: the same amount, converted by molar mass. Entries after “also recorded” stand apart in the source; their conditions may differ. Where two headings read alike, the source gives them in different places.

Key:
Klebsiella spp. (KPC) = test: microbe, parasite or virus in culture; format: cell-based; details: Klebsiella
[1] = tested on: Enterobacter cloacae (WT); test: microbe, parasite or virus in culture; format: cell-based
E. coli (ESBL) = test: microbe, parasite or virus in culture; format: cell-based; details: Escherichia coli
Proteus vulgaris (WT) = test: microbe, parasite or virus in culture; format: cell-based; details: Proteus vulgaris (WT)
[2] = tested on: Enterobacter aerogenes (WT); test: microbe, parasite or virus in culture; format: cell-based; details: Klebsiella aerogenes, Enterobacter aerogenes (WT)
E. coli (WT) = test: microbe, parasite or virus in culture; format: cell-based; details: Escherichia coli, E. coli (WT)
[3] = tested on: Citrobacter freundii (AmpC); test: microbe, parasite or virus in culture; format: cell-based; details: Citrobacter freundii
[4] = tested on: Enterobacter cloacae (AmpC); test: microbe, parasite or virus in culture; format: cell-based; details: Enterobacter cloacae
Klebsiella spp. (ESBL) = test: microbe, parasite or virus in culture; format: cell-based; details: Klebsiella
[5] = tested on: E. coli 1162222 (standard strain) and clinical isolate 1a of E. coli; test: Frequency of spontaneous resistance to GSK2251052 in the presence of norvaline; format: cell-based, Escherichia coli
Experimental: Clinical strains of Escherichia coli and Proteus mirabilis isolated from the above-described clinical trial study (Table 12), along with other E. coli strains were used to measure the suppression of the emergence of resistant bacterial strains in vitro and to determine the susceptibility of these GSK2251052 resistant bacterial isolates to norvaline.
GSK2251052 and norvaline were prepared at a concentration of 6.4 mg/mL (free base) in 100% DMSO and 100% water respectively, aliquoted in 0.5 mL individual stocks, and stored at −20° C. until required.
Plates were poured and left to cool and solidify.
Cultures were prepared by inoculating broth with a bacterial suspension in saline, prepared from plates derived from individual colonies. For each organism, 100 mL of CAMHB was inoculated with 5 mL of a bacterial suspension with turbidity equivalent to 0.5 McFarland. These cultures were incubated on an orbital shaker at 37° C. until the broth was visibly turbid (approximately 3 hours). Following incubation, cultures were centrifuged at 11,000 g for 10 min at 4° C. The culture media was then decanted and cell pellets were resuspended to an appropriate cell concentration in fresh CAMHB or M9. The ratio of OD625 to CFU/mL used to approximate culture size is 0.1:1.0×10^8. Targeted E. coli cell concentrations were 2×10^9 CFU/mL.
Viable counts were performed to determine the concentration of the initial test inoculum using the following steps: 1) ten-fold serial dilutions of each sample were prepared; 2) three 20 μL aliquots from wells corresponding to 10^−5, […], 10^−7 and 10^−8 dilutions were plated onto the appropriate agar plates; 3) the plates were incubated overnight at 35° C. and counts were performed at the dilution that provided distinguishable colonies; 4) an average of the three aliquots was used to determine the number of colony forming units (CFU) in the original sample.
In addition, 100 μL of each cell suspension was spread onto the surface of plates containing the appropriate multiple of MIC concentration of compound and a control agar plate containing no compound. Plates were incubated at 35° C. in ambient air.
Colonies were counted after 24, 48 and 72 hours. […] In order to confirm their resistance phenotype, the susceptibility of these isolates to the selecting agent was tested by broth microdilution methodology.
The frequency of spontaneous resistance was calculated by dividing the total number of resistant colonies growing on plates containing antibiotic by the total number of colony forming units plated. In order to confirm the resistance phenotype, the MIC of the selecting agent was determined against a representative number of colonies from each antibiotic concentration/strain combination. […] The total number of resistant colonies on the plates was extrapolated from the representative set tested.

[6] = read-out: susceptibility category of MIC90
[7] = GSK2251052 breakpoint, read-out: susceptibility category of MIC90

NC[C@H]1OB(O)c2c(OCCCO)cccc21 [GSK2251052, (S)-3-aminomethyl-7-(3-hydroxy-propoxy)-3h-benzo[c][1,2]oxaborol-1-ol]
MIC90 (Klebsiella spp. (KPC)): 2 µg/mL (≈ 8.44 µM)
MIC90 (Klebsiella spp. (KPC); [6]): < 4 µg/mL
MIC90 ([1]; 202 isolates, read-out: MIC90): 1 µg/mL (≈ 4.22 µM)
susceptibility category of MIC90 [1, 7]: < 4 µg/mL
MIC90 (E. coli (ESBL)): 1 µg/mL (≈ 4.22 µM)
MIC90 (E. coli (ESBL); [6]): < 4 µg/mL
MIC90 (Proteus vulgaris (WT); 41 isolates, read-out: MIC90): 1 µg/mL (≈ 4.22 µM)
susceptibility category of MIC90 (Proteus vulgaris (WT); [7]): < 4 µg/mL
MIC90 ([2]; 199 isolates, read-out: MIC90): 1 µg/mL (≈ 4.22 µM)
susceptibility category of MIC90 [2, 7]: < 4 µg/mL
MIC90 (E. coli (WT); 214 isolates, read-out: MIC90): 1 µg/mL (≈ 4.22 µM)
MIC90 (E. coli (WT); [7]): < 4 µg/mL
MIC90 [3]: 1 µg/mL (≈ 4.22 µM)
MIC90 [3, 6]: < 4 µg/mL
MIC90 [4]: 0.5 µg/mL (≈ 2.11 µM)
MIC90 [4, 6]: < 4 µg/mL
MIC90 (Klebsiella spp. (ESBL)): 1 µg/mL (≈ 4.22 µM)
MIC90 (Klebsiella spp. (ESBL); [6]): < 4 µg/mL
Frequency of Resistant to GSK2251052 (4 μg/mL) ([5]; CAMH Agar, E. coli Isolate 1a, Norvaline 0 μg/mL): 6.3 × 10^−8
Frequency of Resistant to GSK2251052 (4 μg/mL) ([5]; CAMH Agar, E. coli Isolate 1a, Norvaline 2 μg/mL): 7.6 × 10^−8
Frequency of Resistant to GSK2251052 (4 μg/mL) ([5]; CAMH Agar, E. coli Isolate 1a, Norvaline 4 μg/mL): 4.7 × 10^−8
Frequency of Resistant to GSK2251052 (4 μg/mL) ([5]; CAMH Agar, E. coli Isolate 1a, Norvaline 8 μg/mL): 6.3 × 10^−8
Frequency of Resistant to GSK2251052 (4 μg/mL) ([5]; CAMH Agar, E. coli Isolate 1a, Norvaline 16 μg/mL): 4.5 × 10^−8
Frequency of Resistant to GSK2251052 (4 μg/mL) ([5]; CAMH Agar, E. coli Isolate 1a, Norvaline 32 μg/mL): 5.0 × 10^−8
Frequency of Resistant to GSK2251052 (4 μg/mL) ([5]; CAMH Agar, E. coli Isolate 1a, Norvaline 64 μg/mL): 5.3 × 10^−8
Frequency of Resistant to GSK2251052 (4 μg/mL) ([5]; CAMH Agar, E. coli baseline strain, Norvaline 0 μg/mL): 1.2 × 10^−7
Frequency of Resistant to GSK2251052 (4 μg/mL) ([5]; CAMH Agar, E. coli baseline strain, Norvaline 2 μg/mL): 5.0 × 10^−8
Frequency of Resistant to GSK2251052 (4 μg/mL) ([5]; CAMH Agar, E. coli baseline strain, Norvaline 4 μg/mL): 1.2 × 10^−7
Frequency of Resistant to GSK2251052 (4 μg/mL) ([5]; CAMH Agar, E. coli baseline strain, Norvaline 8 μg/mL): 6.8 × 10^−8
Frequency of Resistant to GSK2251052 (4 μg/mL) ([5]; CAMH Agar, E. coli baseline strain, Norvaline 16 μg/mL): 6.1 × 10^−8
Frequency of Resistant to GSK2251052 (4 μg/mL) ([5]; CAMH Agar, E. coli baseline strain, Norvaline 32 μg/mL): 1.1 × 10^−7
Frequency of Resistant to GSK2251052 (4 μg/mL) ([5]; CAMH Agar, E. coli baseline strain, Norvaline 64 μg/mL): 9.3 × 10^−8
Frequency of Resistant to GSK2251052 (4 μg/mL) ([5]; M9 Agar, E. coli Isolate 1a, Norvaline 0 μg/mL): 3.8×10^−7
Frequency of Resistant to GSK2251052 (4 μg/mL) ([5]; M9 Agar, E. coli Isolate 1a, Norvaline 2 μg/mL): 4.8×10^−8
Frequency of Resistant to GSK2251052 (4 μg/mL) ([5]; M9 Agar, E. coli Isolate 1a, Norvaline 4 μg/mL): <1.7 × 10^−9
Frequency of Resistant to GSK2251052 (4 μg/mL) ([5]; M9 Agar, E. coli Isolate 1a, Norvaline 8 μg/mL): <1.7 × 10^−9
Frequency of Resistant to GSK2251052 (4 μg/mL) ([5]; M9 Agar, E. coli Isolate 1a, Norvaline 16 μg/mL): <1.7 × 10^−9
Frequency of Resistant to GSK2251052 (4 μg/mL) ([5]; M9 Agar, E. coli Isolate 1a, Norvaline 32 μg/mL): <1.7 × 10^−9
Frequency of Resistant to GSK2251052 (4 μg/mL) ([5]; M9 Agar, E. coli Isolate 1a, Norvaline 64 μg/mL): <1.7 × 10^−9
Frequency of Resistant to GSK2251052 (4 μg/mL) ([5]; M9 Agar, E. coli baseline strain, Norvaline 0 μg/mL): 4.9×10^−8
Frequency of Resistant to GSK2251052 (4 μg/mL) ([5]; M9 Agar, E. coli baseline strain, Norvaline 2 μg/mL): 2.8 × 10^−8
Frequency of Resistant to GSK2251052 (4 μg/mL) ([5]; M9 Agar, E. coli baseline strain, Norvaline 4 μg/mL): 2.0 × 10^−8
Frequency of Resistant to GSK2251052 (4 μg/mL) ([5]; M9 Agar, E. coli baseline strain, Norvaline 8 μg/mL): 6.0 × 10^−8
Frequency of Resistant to GSK2251052 (4 μg/mL) ([5]; M9 Agar, E. coli baseline strain, Norvaline 16 μg/mL): 3.0 × 10^−9
Frequency of Resistant to GSK2251052 (4 μg/mL) ([5]; M9 Agar, E. coli baseline strain, Norvaline 32 μg/mL): <1.0 × 10^−9
Frequency of Resistant to GSK2251052 (4 μg/mL) ([5]; M9 Agar, E. coli baseline strain, Norvaline 64 μg/mL): <1.0 × 10^−9
decrease in the frequency of resistance to GSK2251052 ([5]; M9 minimal media, E. coli baseline strain, no norvaline versus >32 μg/mL): ≥ 50 fold
decrease in the frequency of spontaneous resistance ([5]; M9 minimal media, E. coli clinical isolate from subject E. coli 1, no norvaline versus >4 μg/mL): over 200 fold
effect of norvaline on frequency of resistance in rich media ([5]; both E. coli strains, rich media, GSK2251052 4 μg/mL, norvaline up to 64 μg/mL): remained the same; also recorded: did not change the frequency of spontaneous resistance
frequency of resistance to GSK2251052 ([5]; minimal media, E. coli clinical isolate 1a, norvaline ≧4 μg/mL): < 1.7×10^−9
reduction of the appearance of mutants ([5]; minimal media, baseline E. coli strain, norvaline at 8 μg/mL): 10 fold
frequency of resistance to GSK2251052 ([5]; minimal media, baseline E. coli strain, norvaline ≧32 μg/mL): < 1×10^−9
